Data: US20140249135A1, “PIM KINASE INHIBITORS AND METHODS OF THEIR USE” (NOVARTIS AG, priority 2007, published 2014)
Where two headings read alike, the source gives them in different places.

How the values were obtained:
Assay type in all cases: biochemical
[1] = molecular target: Pim1 kinase (Homo sapiens, UniProt P11309); test: Pim1 ATP depletion assay; conditions: Pim1 ATP depletion assay;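 further: Luciferase-luciferin luminescence readout of residual ATP after PIM1 transfers phosphate to a peptide substrate, 40 µM ATP added, reaction run to roughly half ATP consumption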
[2] = molecular target: Pim2 kinase (Homo sapiens, UniProt Q9P1W9); test: Pim2 ATP depletion assay;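 further: Luciferase-based luminescent readout of ATP remaining after PIM2 phosphorylates a BAD peptide, final 5 nM enzyme, 4 µM ATP, 10 µM peptide, 2.5% DMSO, run to roughly half ATP consumption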
[3] = molecular target: Pim3 kinase (Homo sapiens, UniProt Q86V86); test: Pim3 ATP depletion assay

Chain of Pim1 kinase (P11309 whole entry): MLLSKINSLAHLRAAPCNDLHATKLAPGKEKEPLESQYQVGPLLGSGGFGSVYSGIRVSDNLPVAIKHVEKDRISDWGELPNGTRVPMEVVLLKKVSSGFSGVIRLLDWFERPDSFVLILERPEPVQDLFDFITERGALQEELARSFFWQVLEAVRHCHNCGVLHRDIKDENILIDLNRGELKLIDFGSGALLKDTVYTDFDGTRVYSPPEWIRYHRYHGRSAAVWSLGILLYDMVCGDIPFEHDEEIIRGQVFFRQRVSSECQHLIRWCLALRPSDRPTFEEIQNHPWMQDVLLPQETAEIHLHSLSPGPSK
Chain of Pim2 kinase (Q9P1W9 whole entry): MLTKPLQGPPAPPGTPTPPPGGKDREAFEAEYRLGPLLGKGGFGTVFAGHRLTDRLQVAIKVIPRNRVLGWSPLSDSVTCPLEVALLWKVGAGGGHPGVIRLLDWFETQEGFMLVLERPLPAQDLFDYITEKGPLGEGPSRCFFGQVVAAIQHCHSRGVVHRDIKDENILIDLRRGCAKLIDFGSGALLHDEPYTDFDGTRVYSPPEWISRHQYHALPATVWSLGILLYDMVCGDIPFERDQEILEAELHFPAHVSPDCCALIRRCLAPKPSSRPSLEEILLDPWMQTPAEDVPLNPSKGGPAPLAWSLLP

IC50 ([1]; read-out: IC50 (μM) PIM1) [µM] | IC50 ([2]; read-out: IC50 (μM) PIM2) [µM] | IC50 ([3]; read-out: IC50 (μM) PIM3) [µM] | IC50 ([1]; read-out: PIM1 IC50) [µM] | IC50 ([2]; read-out: PIM2 IC50) [µM] | IC50 ([3]; read-out: PIM3 IC50) [µM] | SMILES
< 1 | < 1 | < 1 |  |  |  | Nc1ccc(-c2ccccc2F)nc1C(=O)Nc1cnccc1N1CCC(F)(F)C(N)C1 (stereo not drawn) [Example 254, 3-Amino-6-(2-fluoro-phenyl)-pyridine-2-carboxylic acid (3-amino-4,4-difluoro-3,4,5,6-tetra-hydro-2H-[1,4′]bipyridinyl-3′-yl)-amide]
< 1 | < 1 | < 1 |  |  |  | Nc1ccc(-c2cccc(Cl)c2F)nc1C(=O)Nc1cnccc1N1CCC[C@H](N)C1 [Example 479, 3-Amino-6-(3-chloro-2-fluoro-phenyl)-pyridine-2-carboxylic acid (3-amino-3,4,5,6-tetrahydro-2H-[1,4′]bipyridinyl-3′-yl)-amide]
< 1 | < 1 | < 1 |  |  |  | COC(=O)c1nc(-c2ccc(N)c(C(=O)Nc3cnccc3N3CCC[C@H](N)C3)n2)c(F)cc1N [Example 504, 5,5′-Diamino-6′-(3-amino-3,4,5,6-tetrahydro-2H-[1,4′]bi-pyridinyl-3′-ylcarbamoyl)-3-fluoro-[2,2′]bipyridinyl-6-carboxylic acid methyl ester]
< 1 | < 1 | < 1 |  |  |  | Nc1ncc(-c2ccc(N)c(C(=O)Nc3cnccc3N3CCC[C@H](N)C3)n2)c(C(F)(F)F)n1 [Example 486, 3-Amino-6-(2-amino-4-trifluoromethyl-pyrimidin-5-yl)-pyridine-2-carboxylic acid (3-amino-3,4,5,6-tetrahydro-2H-[1,4′]bipyridinyl-3′-yl)-amide]
 |  |  | < 1 | < 1 | < 1 | Nc1ccc(C23CC4CC(CC(C4)C2)C3)nc1C(=O)Nc1cnccc1N1CCC[C@H](N)C1 [Example 645, 6-Adamantan-1-yl-3-amino-pyridine-2-carboxylic acid (3-amino-3,4,5,6-tetrahydro-2H-[1,4′]bipyridinyl-3′-yl)-amide]
< 1 | < 1 | < 1 |  |  |  | CC(C)NC(=O)c1ccc(F)c(-c2ccc(N)c(C(=O)Nc3cnccc3N3CCC[C@H](N)C3)n2)c1F [Example 503, 3-Amino-6-(2,6-difluoro-3-isopropylcarbamoyl-phenyl)-pyridine-2-carboxylic acid (3-amino-3,4,5,6-tetrahydro-2H-[1,4′]bipyridinyl-3′-yl)-amide]
< 1 | < 1 | < 1 |  |  |  | NCC(=O)N1CCN(c2ccncc2NC(=O)c2nc(-c3ccccc3F)ccc2N)CC1 [Example 252, 3-Amino-6-(2-fluoro-phenyl)-pyridine-2-carboxylic acid {4-[4-(2-amino-acetyl)-piperazin-1-yl]-pyridin-3-yl}-amide]
 |  |  | < 1 | < 1 | < 1 | Nc1ccc(-c2cncc(OCc3ccccc3)n2)nc1C(=O)Nc1cnccc1N1CCC[C@H](N)C1 [Example 750, 3-Amino-6-(6-benzyloxy-pyrazin-2-yl)-pyridine-2-carboxylic acid (3-amino-3,4,5,6-tetrahydro-2H-[1,4′]bi-pyridinyl-3′-yl)-amide]
 |  |  | < 1 | < 1 | < 1 | CC(C)NC(=O)c1ccc(F)c(-c2cccc(C(=O)Nc3cnccc3-c3cc(N)nc(C(F)(F)F)n3)n2)c1 [Example 553, 6-(2-Fluoro-5-isopropylcarbamoyl-phenyl)-pyridine-2-carboxylic acid [4-(6 amino-2-trifluoromethyl-pyrimidin-4-yl)-pyridin-3-yl]-amide]
 |  |  | < 1 | < 1 | < 1 | Nc1ccc(-c2ccccc2F)nc1C(=O)Nc1cnccc1N1C[C@@H](N)C[C@@H](O)C1 [Example 678, 3-Amino-6-(2-fluoro-phenyl)-pyridine-2-carboxylic acid (5-amino-3-hydroxy-3,4,5,6-tetra-hydro-2H-[1,4′]bipyridinyl-3′-yl)-amide]
 |  |  | < 1 | < 1 | < 1 | Cc1csc(-c2ccc(N)c(C(=O)Nc3cnccc3-c3cc(N)nc(C)n3)n2)c1 [Example 556, 3-Amino-6-(4-methyl-thiophen-2-yl)-pyridine-2-carboxylic acid [4-(6-amino-2-methyl-pyrimidin-4-yl)-pyridin-3-yl]-amide]
 |  |  | < 1 | < 1 | < 1 | Nc1ccc(-c2nccs2)nc1C(=O)Nc1cnccc1N1CCC[C@H](N)C1 [Example 632, 3-amino-N-{4-[(3S)-3-aminopiperidin-1-yl]pyridin-3-yl}-6-(1,3-thiazol-2-yl)-pyridine-2-carboxamide]
< 1 | < 1 | < 1 |  |  |  | Nc1cc(-c2ccncc2NC(=O)c2cccc(-c3ccc(N4CCNCC4)cc3)n2)nc(C(F)(F)F)n1 [Example 525, 6-(4-Piperazin-1-yl-phenyl)-pyridine-2-carboxylic acid [4-(6-amino-2-trifluoromethyl-pyrimidin-4-yl)-pyridin-3-yl]-amide]
 |  |  | < 1 | < 1 | < 1 | Nc1ccc(-c2c(F)cccc2F)nc1C(=O)Nc1cnccc1N1CCCC(O)C1 (stereo not drawn) [Example 658, 3-Amino-6-(2,6-difluoro-phenyl)-pyridine-2-carboxylic acid (3-hydroxy-3,4,5,6-tetra-hydro-2H-[1,4′]bipyridinyl-3′-yl)-amide]
< 1 | < 1 | < 1 |  |  |  | N[C@H]1CCCN(c2ccncc2NC(=O)c2ccnc(-c3ccccc3F)n2)C1 [Example 250, N-{4-[(3S)-3-aminopiperidin-1-yl]pyridin-3-yl}-2-(2-fluoro-phenyl)pyrimidine-4-carbox-amide]

Further lines, the compound ahead of its results:

SMILES | IC50 ([1]; read-out: IC50 (μM) PIM1) [µM] | IC50 ([2]; read-out: IC50 (μM) PIM2) [µM] | IC50 ([3]; read-out: IC50 (μM) PIM3) [µM] | IC50 ([1]; read-out: PIM1 IC50) [µM] | IC50 ([2]; read-out: PIM2 IC50) [µM] | IC50 ([3]; read-out: PIM3 IC50) [µM]
CCC(CC)c1ccc(N)c(C(=O)Nc2cnccc2N2CCC[C@H](N)C2)n1 [Example 634, 3-Amino-6-(1-ethyl-propyl)-pyridine-2-carboxylic acid (3-amino-3,4,5,6-tetrahydro-2H-[1,4′]bipyridinyl-3′-yl)-amide] |  |  |  | < 1 | < 1 | < 1
N[C@@H]1CN(c2ccncc2NC(=O)c2ccc(F)c(-c3ccccc3)n2)CC[C@H]1O [Example 681, 5-Fluoro-6-phenyl-pyridine-2-carboxylic acid (3-amino-4-hydroxy-3,4,5,6-tetrahydro-2H-[1,4′]bipyridinyl-3′-yl)-amide] |  |  |  | < 1 | < 1 | < 1
CC1CC(N)CN(c2ccncc2NC(=O)c2nc(C3CCCCC3)ccc2N)C1 (stereo not drawn) [Example 283, 3-Amino-6-cyclohexyl-pyridine-2-carboxylic acid (3-amino-5-methyl-3,4,5,6-tetrahydro-2H-[1,4′]bipyridinyl-3′-yl)-amide] | < 1 | < 1 | < 1 |  |  | 
Nc1ccc(-c2ncccc2C(F)(F)F)nc1C(=O)Nc1cnccc1N1CCC[C@H](N)C1 [Example 721, 5-Amino-3′-trifluoromethyl-[2,2′]bipyridinyl-6-carboxylic acid (3-amino-3,4,5,6-tetra-hydro-2H-[1,4′]bipyridinyl-3′-yl)-amide] |  |  |  | < 1 | < 1 | < 1
Nc1cnc(-c2c(F)cccc2F)nc1C(=O)Nc1cnccc1N1CCC[C@H](N)C1 [Example 270, 5-Amino-2-(2,6-difluoro-phenyl)-pyrimidine-4-carboxylic acid (3-amino-3,4,5,6-tetrahydro-2H-[1,4′]bipyridinyl-3′-yl)-amide] | < 1 | < 1 | < 1 |  |  | 
Cc1cccc(C)c1-c1nc(C(=O)Nc2cnccc2N2CCC[C@H](N)C2)c(N)cc1F [Example 509, 3-Amino-6-(2,6-dimethyl-phenyl)-5-fluoro-pyridine-2-carboxylic acid (3-amino-3,4,5,6-tetrahydro-2H-[1,4′]bipyridinyl-3′-yl)-amide] | < 1 | < 1 | < 1 |  |  | 
CS(=O)(=O)c1ccc(-c2ccc(N)c(C(=O)Nc3cnccc3N3CCC[C@H](N)C3)n2)nc1 [Example 698, 5-Amino-5′-methanesulfonyl-[2,2′]bipyridinyl-6-carboxylic acid (3-amino-3,4,5,6-tetra-hydro-2H-[1,4′]bipyridinyl-3′-yl)-amide] |  |  |  | < 1 | < 1 | < 1
NC(=O)c1ccc(N2CCCCC2)c(NC(=O)c2nccnc2N)c1 [Example 170, 3-amino-N-(5-carbamoyl-2-(piperidin-1-yl)phenyl)pyrazine-2-carboxamide] | < 1 | 1 to 10 | < 1 |  |  | 
CCCCOc1ccc(F)c(-c2nc(C(=O)Nc3cnccc3N3CCC[C@H](N)C3)c(N)cc2F)c1F [Example 506, 3-Amino-6-(3-butoxy-2,6-difluoro-phenyl)-5-fluoro-pyridine-2-carboxylic acid (3-amino-3,4,5,6-tetrahydro-2H-[1,4′]bipyridinyl-3′-yl)-amide] | < 1 | < 1 | < 1 |  |  | 
Cc1nc(N)cc(-c2ccncc2NC(=O)c2nc(-c3ccccc3F)ncc2N)n1 [Example 272, 5-Amino-2-(2-fluoro-phenyl)-pyrimidine-4-carboxylic acid [4-(6-amino-2-methyl-pyrimidin-4-yl)-pyridin-3-yl]-amide] | < 1 | < 1 | < 1 |  |  | 
CC(C)NC(=O)c1ccc(F)c(-c2nc(C(=O)Nc3cnccc3N3CCC[C@H](N)C3)c(N)cc2F)c1 [Example 508, 3-Amino-5-fluoro-6-(2-fluoro-5-isopropylcarbamoyl-phenyl)-pyridine-2-carboxylic acid (3-amino-3,4,5,6-tetrahydro-2H-[1,4′]bipyridinyl-3′-yl)-amide] | < 1 | < 1 | < 1 |  |  | 
CCCNC(=O)c1ccc(F)c(-c2ccc(N)c(C(=O)Nc3cnccc3-c3cc(N)nc(C)n3)n2)c1 [Example 565, 3-Amino-6-(2-fluoro-5-propylcarbamoyl-phenyl)-pyridine-2-carboxylic acid [4-(6-amino-2-methyl-pyrimidin-4-yl)-pyridin-3-yl]-amide] |  |  |  | < 1 | < 1 | < 1
